{
  "source": "patent US20230133958A1",
  "about": "“COMPOUNDS USEFUL IN MODULATING EGFR AND PI3K” (Mekanistic Therapeutics LLC, priority 2021, published 2023)",
  "key": {"[1]": {"test": "Solubility assessment in aqueous media", "format": "physicochemical", "settings": "kinetic from dmso stock, 25° C.", "procedure": "Preparation of stock solutions: The stock solutions of test compounds and control compound diclofenac were prepared in DMSO at the concentrations of 10 mM.\nProcedure for solubility determination: 15 µL of stock solution (10 mM) of each sample was placed in order into their proper 96-well rack. 485 µL of (SIF, SGF, PBS 7.4, FESSIF, or FESSGF) was added into each vial of the cap-less Solubility Sample plate. The assay was performed in duplicate. Add one stir stick to each vial and seal using a molded PTFE/Silicone plug. […] After completion of the 2 hours, plugs were removed and the stir sticks were removed using a big magnet, the samples from the Solubility Sample plate were transferred into the filter plate. Using the Vacuum Manifold, all the samples were filtered. Aliquot of 5 µL and 5 µL DMSO were taken from the filtrate followed by addition of 490 µL of a mixture of H2O and acetonitrile containing internal standard (1:1). A certain proportion of ultrapure water was used to dilute the diluent according to the peak shape. The dilution factor was changed according to the solubility values and the LC-MS signal response.\nPreparation of 300 µM standards (STD): From the 10 mM DMSO STD plate, 6 µL was transferred into the remaining empty plate, and then 194 µL of DMSO was added to that plate to have a STD concentration of 300 µM. From the 300 µM DMSO STD plate, 5 µL DMSO STD and 5 µL SIF was transferred into the remaining empty plate, and then 490 µL of a mixture of H2O and acetonitrile containing internal standard (1:1) was added to that plate to have a final STD concentration of 3 µM. […]\nProcedure for sample analysis: The plate was placed into the well plate autosampler. The samples were evaluated by LC-MS/MS analysis.\nData analysis: All calculations were carried out using Microsoft Excel. The filtrate was analyzed and quantified against a standard of known concentration using LC coupled with mass spectral peak identification and quantitation. Solubility values of the test compound and control compound were calculated as follows: […]"}, "MTOR": {"target": "MTOR (Homo sapiens, UniProt P42345)", "test": "Z'-LYTE / Adapta biochemical kinase assay, MTOR", "text": "(§1) The Z′-LYTE® biochemical assay employs a fluorescence-based, coupled-enzyme format and is based on the differential sensitivity of phosphorylated and non-phosphorylated peptides to proteolytic cleavage. The peptide substrate is labeled with two fluorophores—one at each end—that make up a FRET pair. In the primary reaction, the kinase transfers the gamma-phosphate of ATP to a single tyrosine, serine or threonine residue in a synthetic FRET-peptide. In the secondary reaction, a site-specific protease recognizes and cleaves non-phosphorylated FRET-peptides. Phosphorylation of FRET-peptides suppresses cleavage by the Development Reagent. […] A ratiometric method, which calculates the ratio (the Emission Ratio) of donor emission to acceptor emission after excitation of the donor fluorophore at 400 nm, is used to quantitate reaction progress.\n(§2) A significant benefit of this ratiometric method for quantitating reaction progress is the elimination of well-to-well variations in FRET-peptide concentration and signal intensities. […]\n(§3) Both cleaved and uncleaved FRET-peptides contribute to the fluorescence signals and therefore to the Emission Ratio. The extent of phosphorylation of the FRET-peptide can be calculated from the Emission Ratio. […]"}, "P13Kγ": {"target": "P13Kγ (Homo sapiens, UniProt P48736)", "sequence (P48736 whole entry, stated change not applied)": "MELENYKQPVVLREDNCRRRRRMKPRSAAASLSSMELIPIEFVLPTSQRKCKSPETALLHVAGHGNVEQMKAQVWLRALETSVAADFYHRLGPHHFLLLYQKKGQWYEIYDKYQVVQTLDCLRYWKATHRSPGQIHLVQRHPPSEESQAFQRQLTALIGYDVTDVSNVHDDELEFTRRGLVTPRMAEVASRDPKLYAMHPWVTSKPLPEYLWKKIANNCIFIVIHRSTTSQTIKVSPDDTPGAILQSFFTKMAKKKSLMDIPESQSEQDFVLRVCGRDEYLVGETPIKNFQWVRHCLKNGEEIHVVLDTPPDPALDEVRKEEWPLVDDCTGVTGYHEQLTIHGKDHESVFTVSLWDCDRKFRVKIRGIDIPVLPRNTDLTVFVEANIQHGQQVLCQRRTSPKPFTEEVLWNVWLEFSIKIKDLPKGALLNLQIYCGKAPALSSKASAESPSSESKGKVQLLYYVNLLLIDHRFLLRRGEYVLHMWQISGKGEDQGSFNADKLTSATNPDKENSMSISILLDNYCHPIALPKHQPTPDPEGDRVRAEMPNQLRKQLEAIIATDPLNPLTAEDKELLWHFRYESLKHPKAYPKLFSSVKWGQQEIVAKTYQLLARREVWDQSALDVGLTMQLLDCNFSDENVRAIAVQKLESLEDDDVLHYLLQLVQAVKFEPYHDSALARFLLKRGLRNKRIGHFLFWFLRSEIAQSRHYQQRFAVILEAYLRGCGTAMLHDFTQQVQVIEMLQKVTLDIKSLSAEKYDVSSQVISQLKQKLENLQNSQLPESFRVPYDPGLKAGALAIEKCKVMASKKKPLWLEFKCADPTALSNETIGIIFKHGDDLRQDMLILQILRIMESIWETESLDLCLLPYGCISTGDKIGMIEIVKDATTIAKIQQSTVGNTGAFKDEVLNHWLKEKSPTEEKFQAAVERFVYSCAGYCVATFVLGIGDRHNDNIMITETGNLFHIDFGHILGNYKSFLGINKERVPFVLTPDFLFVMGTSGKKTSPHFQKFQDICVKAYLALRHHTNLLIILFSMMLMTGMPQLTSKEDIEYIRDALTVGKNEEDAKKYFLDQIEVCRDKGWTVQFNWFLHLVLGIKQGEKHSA", "test": "Z'-LYTE / Adapta biochemical kinase assay, PI3Kγ", "text": "as §1, §2, §3"}},
  "data": [
    {"smiles": "CS(=O)(=O)Nc1cc(-c2ccc3ncnc(Nc4cccc(Cl)c4F)c3c2)cnc1Cl", "note": "[Compound 6, N-[2-chloro-5-[4-(3-chloro-2-fluoro-anilino)quinazolin-6-yl]-3-pyridyl] methanesulfonamide]", "values": [
      {"measurement": "solubility at 2 h", "setting": "[1]; PBS pH 7.4, aqueous buffer, pH 7.4 Buffer", "value": "5 to 100", "unit": "µM"},
      {"measurement": "solubility at 2 h", "setting": "[1]; fassgf or other biorelevant, Simulated Intestinal Fluid (SIF)", "value": "5 to 100", "unit": "µM"},
      {"measurement": "solubility at 2 h", "setting": "[1]; Simulated Gastric Fluid (SGF)", "value": "> 200", "unit": "µM"},
      {"measurement": "IC50", "setting": "MTOR", "value": "2 to 20", "unit": "nM"},
      {"measurement": "IC50", "setting": "P13Kγ", "value": "≤ 2", "unit": "nM"}
    ]}
  ]
}
